{"source": "paper PMC2987774", "about": "“Creation of a novel peptide with enhanced nuclear localization in prostate and pancreatic cancer cell lines” (BMC Biotechnology, 2010)", "key": {"PANC-1 cells [1]": {"system": "PANC-1 cells", "assay": "Nuclear colocalization by imaging flow cytometry (DRAQ5, Amnis ImageStream)", "type": "cell-based", "conditions": "1000 nM, 18 hr; 4 to 5 thousand events", "protocol": "(§1) Concentrations ranging from 0 to 1000 nM were assayed. Fluorescence was normalized using calibration beads (Becton-Dickinson; BD). […] Four to five thousand events were collected for analysis."}, "DU-145 cells [2]": {"system": "DU-145 cells", "assay": "Nuclear colocalization by imaging flow cytometry (DRAQ5, Amnis ImageStream)", "type": "cell-based", "conditions": "1000 nM, 18 hr; 4 to 5 thousand events", "protocol": "as §1"}, "DU-145 cells [3]": {"system": "DU-145 cells", "conditions": "for uptake of Glu-Oct6-FITC on coincubation with carboxydansyl peptide: 300 nM dansyl peptide + 300 nM Glu-Oct6-FITC, 1 hr, BD LSR II (Figure 2D); for % Inhibition of uptake: 300 nM, 4 hr", "quoted_text": "Peptides were added to subconfluent cultures of cells at times, temperatures, and concentrations indicated in experiments. Concentrations ranging from 0 to 1000 nM were assayed. Fluorescence was normalized using calibration beads (Becton-Dickinson; BD). Cells were analyzed in the presence of 5 mM 7-AAD (eBioscience, San Digeo CA) to gate on live events. Fluorescence was quantified, after cells were harvested, using a BD FACScan flow cytometer. At least 10,000 events were acquired using CellQuest Pro software and an Apple Macintosh G4 dual coprocessor computer running OS X 10.3.9. Fluorescence detectors on the instrument were standardized prior to each acquisition run, so that fluorescence intensities from different days could be compared. Because the FACScan employs logarithmic amplifiers on the fluorescence detectors, the more accurate parameter with which to compare fluorescence intensities for different samples is the geometric mean fluorescence intensity (geometric MFI). For the studies examining uptake of carboxyfluorescein peptides plus carboxydansyl peptides, fluorescence was quantified on a BD LSR II flow cytometer."}, "PANC-1 cells [4]": {"system": "PANC-1 cells", "assay": "Apoptosis, FITC-annexin V plus PI flow cytometry", "type": "cell-based", "conditions": "48 hr, mean of 3 experiments", "protocol": "(§2) DU-145 and PANC-1 cells were incubated with PNAs Glu-Oct6-13410a or 13410a (no CPP attached) at 0, 300, 600, or 1000 nM for 48 hr. Cells were harvested, then stained with FITC-annexin V (Abcam; Cambridge, MA) and counterstained with propidium iodide (Sigma, St.Louis, MO). Cells were analyzed on a BD FACScan for fluorescence in the FL1 and FL3 channels; CellQuest Pro software was used to quantify fluorescence and determine the extent of apoptosis."}, "DU-145 cells [5]": {"system": "DU-145 cells", "assay": "Apoptosis, FITC-annexin V plus PI flow cytometry", "type": "cell-based", "conditions": "48 hr, mean of 3 experiments", "protocol": "as §2"}, "DU-145 and LNCaP cells [6]": {"system": "DU-145 and LNCaP cells", "assay": "Live cell imaging, inverted epifluorescence microscopy with DRAQ5", "type": "cell-based", "conditions": "500 nM, 24 hrs incubation", "protocol": "A Zeiss Axiovert 200 inverted phase-contrast microscope outfitted with epifluorescence was used for live imaging studies. Subconfluent cultures of cells in 12-well plates were incubated with 500 nM peptides as indicated. DRAQ5 (Axxora; […] final concentration) was added for the last hour of incubation, then the cells were washed twice with warm phenol red-free buffer. Cells were examined in phenol red-free buffer plus 10% serum. Images were acquired and analyzed using Zeiss Axiovision software."}, "DU-145 and LNCaP cells [7]": {"system": "DU-145 and LNCaP cells", "assay": "Nuclear colocalization by imaging flow cytometry (DRAQ5), statement pooled over two lines", "type": "cell-based", "conditions": "250 nM, 4 hours; fixed cells, IDEAS software", "protocol": "Figure 4 Imaging studies. Figure 4A: DU-145 and LNCaP cells were incubated with 250 nM Glu-Ala-FITC or Glu-Oct6-FITC for 4 hours, counterstained with […] DRAQ 5, then fixed in paraformaldehyde and analyzed by imaging flow cytometry on an Amnis Imaging Cytometer. IDEAS software (Amnis) was used to generate and colorize the images. Across each row of images, one is viewing the same cell under different fluorescence excitations. […] Figure 4B: Live cell imaging of Glu-Oct6-FITC by DU-145 cells. 500 nM Glu-Oct6-FITC was incubated with DU-145 cells overnight (necessary for imaging purposes). Cells were washed with phenol red-free buffer, counter-stained with DRAQ5 at […], and then examined under a Zeiss Axiovert 200 inverted phase contrast microscope with epifluorescence. The merged image confirms the presence of Glu-Oct6-FITC in nuclei. Merged images with and without Nomarski interference are shown. Figure 4C and D: DU-145 cells incubated with Glu-FITC and Oct6-FITC, as described for Figure 3B. Note the absence of FITC fluorescence in nuclei.\nas §1"}}, "note": "Several values for one entry are separate records, joined by “and”; a condition that tells them apart may be missing. Identical values can stand only once. Like-named read-outs stand apart in the source and are kept apart here. Marks after values point to notes of the source that are not given here."}
{"substance": "EEEAAGRKRKKRT-TATGATCTCCTCCGT-K-FITC [Glu-Oct6-PNA-FITC, Glu-Oct6 at the N terminus, inert PNA …-lysyl-FITC at the C terminus]", "values": [{"measurement": "mean % cyto. FITC", "setting": "PANC-1 cells [1]", "result": 21.8, "unit": "%"}, {"measurement": "mean cyto. FITC intensity", "setting": "PANC-1 cells [1]", "result": "68,465"}, {"measurement": "mean nuclear FITC intensity", "setting": "PANC-1 cells [1]", "result": "322,794"}, {"measurement": "mean % cyto. FITC", "setting": "DU-145 cells [2]", "result": 22.48, "unit": "%"}, {"measurement": "mean % nuclear FITC", "setting": "DU-145 cells [2]", "result": 68.04, "unit": "%"}, {"measurement": "mean cyto. FITC intensity", "setting": "DU-145 cells [2]", "result": "76,943"}, {"measurement": "mean nuclear FITC intensity", "setting": "DU-145 cells [2]", "result": "274,597"}]}
{"substance": "NNNAAGRKRKKRT-dansyl [Asn-Oct6-Dansyl]", "values": [{"measurement": "uptake of Glu-Oct6-FITC on coincubation with carboxydansyl peptide", "setting": "DU-145 cells [3]", "result": "nearly unaltered uptake"}]}
{"substance": "EEEAAGRKRKKRT-TCCCGTAAATCCCTA [Glu-Oct6-13410a]", "values": [{"measurement": "% apop.", "setting": "PANC-1 cells [4]; 300 nM PNA", "result": 17.4, "unit": "%"}, {"measurement": "% apop.", "setting": "PANC-1 cells [4]; 600 nM PNA", "result": "69% and 69.6* %"}, {"measurement": "% apop.", "setting": "PANC-1 cells [4]; 1000 nM PNA", "result": "84.6* %"}, {"measurement": "% apop.", "setting": "DU-145 cells [5]; 300 nM PNA", "result": 8.7, "unit": "%"}, {"measurement": "% apop.", "setting": "DU-145 cells [5]; 600 nM PNA", "result": "48% and 48.7* %"}, {"measurement": "% apop.", "setting": "DU-145 cells [5]; 1000 nM PNA", "result": "82.5* %"}]}
{"substance": "EEEAA-FITC [Glu-Ala-FITC, carboxyfluorescein-labeled glutamate-rich peptide EEEAA-FITC]", "values": [{"measurement": "accumulation in the nuclei", "setting": "DU-145 and LNCaP cells [6]", "result": "not"}, {"measurement": "% Inhibition of uptake", "setting": "DU-145 cells [3]; 0% NaN3 (reference)", "result": 0, "unit": "%"}, {"measurement": "% Inhibition of uptake", "setting": "DU-145 cells [3]; 0.1% NaN3", "result": 0, "unit": "%"}, {"measurement": "nuclei positive for DRAQ5 and FITC colocalization", "setting": "DU-145 and LNCaP cells [7]", "result": "~ 10%"}]}
{"substance": "GRKRKKRT-FITC [Oct6-FITC, reference compound]", "values": [{"measurement": "accumulation in the nuclei", "setting": "DU-145 and LNCaP cells [6]", "result": "not"}, {"measurement": "% Inhibition of uptake", "setting": "DU-145 cells [3]; 0% NaN3 (reference)", "result": 0, "unit": "%"}, {"measurement": "% Inhibition of uptake", "setting": "DU-145 cells [3]; 0.1% NaN3", "result": 29.8, "unit": "%"}, {"measurement": "% Inhibition of uptake", "setting": "DU-145 cells [3]; 1.0% NaN3", "result": 56.7, "unit": "%"}]}
{"substance": "EEEAAKKK-FITC [Glu-Lys-FITC]", "values": [{"measurement": "% Inhibition of uptake", "setting": "DU-145 cells [3]; 0% NaN3 (reference)", "result": 0, "unit": "%"}, {"measurement": "% Inhibition of uptake", "setting": "DU-145 cells [3]; 0.1% NaN3", "result": 0, "unit": "%"}]}
{"substance": "FFFAAGRKRKKRT-dansyl [Phe-Oct6-Dansyl]", "values": [{"measurement": "uptake of Glu-Oct6-FITC on coincubation with carboxydansyl peptide", "setting": "DU-145 cells [3]", "result": "nearly unaltered uptake"}]}
{"substance": "EEEAAGRKRKKRT-FITC [Glu-Oct6-FITC, novel CPP, EEEAA on the N-terminus of the Oct6 NLS, FITC-labeled]", "values": [{"measurement": "accumulation in the nuclei", "setting": "DU-145 and LNCaP cells [6]", "result": "accumulated in the nuclei"}, {"measurement": "% Inhibition of uptake", "setting": "DU-145 cells [3]; 0% NaN3 (reference)", "result": 0, "unit": "%"}, {"measurement": "% Inhibition of uptake", "setting": "DU-145 cells [3]; 0.1% NaN3", "result": 0, "unit": "%"}, {"measurement": "% Inhibition of uptake", "setting": "DU-145 cells [3]; 1.0% NaN3", "result": 24.8, "unit": "%"}, {"measurement": "distribution in the cytoplasm", "setting": "DU-145 and LNCaP cells [7]", "result": "approximately 50%"}, {"measurement": "distribution in the nucleus", "setting": "DU-145 and LNCaP cells [7]", "result": "approximately 50%"}]}
